Results from publication PMC7838297, “Acyl-CoA thioesterase activity of peroxisomal ABC protein ABCD1 is required for the transport of very long-chain acyl-CoA into peroxisomes” (Scientific Reports, 2021).

What was measured:
Type in all cases: biochemical
[1] = target: T1, His-ABCD1 (human ABCD1) (Homo sapiens, UniProt P33897); experiment: ATPase, phosphate release; settings: 5 mM ATP, 11 mM MgCl2, pH 7.6, 37 °C; ABCD1-liposomes
T1 construct: full-length, His-tagged (tag kept), expressed in Komagataella phaffii pxa1-delta, beta-DDM-solubilised, metal-chelate purified, reconstituted into soybean PC liposomes; about 80 kDa band

[2] = target: T2, His-KpFAA2 (Komagataella phaffii, UniProt F2QZH2); experiment: acyl-CoA synthesis, TLC; settings: 5 mM CoA, 5 mM ATP, 5 mM MgCl2, pH 7.5, 30 °C, 3 h
T2 construct: gene FAA2; His-tagged, expressed in K. phaffii SMD1168, metal-chelate purified as for His-ABCD1
T2 sequence (F2QZH2 1-741): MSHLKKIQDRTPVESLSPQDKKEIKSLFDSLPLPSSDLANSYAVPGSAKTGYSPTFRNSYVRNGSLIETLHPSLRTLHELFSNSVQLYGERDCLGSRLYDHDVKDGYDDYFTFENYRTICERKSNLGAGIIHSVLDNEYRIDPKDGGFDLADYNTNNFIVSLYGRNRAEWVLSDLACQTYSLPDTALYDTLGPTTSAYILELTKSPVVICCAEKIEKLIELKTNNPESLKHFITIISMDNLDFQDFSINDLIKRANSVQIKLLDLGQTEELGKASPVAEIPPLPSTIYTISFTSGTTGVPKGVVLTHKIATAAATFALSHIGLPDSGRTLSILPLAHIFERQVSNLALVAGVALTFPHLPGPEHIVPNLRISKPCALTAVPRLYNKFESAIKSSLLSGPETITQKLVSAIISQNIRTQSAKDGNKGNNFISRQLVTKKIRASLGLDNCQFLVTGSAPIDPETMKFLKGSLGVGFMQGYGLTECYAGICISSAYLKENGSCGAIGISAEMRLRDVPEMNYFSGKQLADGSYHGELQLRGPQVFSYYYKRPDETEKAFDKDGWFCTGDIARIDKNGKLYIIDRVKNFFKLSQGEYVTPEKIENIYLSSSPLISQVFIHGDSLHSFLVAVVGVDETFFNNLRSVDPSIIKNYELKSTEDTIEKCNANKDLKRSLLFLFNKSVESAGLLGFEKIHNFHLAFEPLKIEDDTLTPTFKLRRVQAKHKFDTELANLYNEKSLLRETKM

[3] = target: T1, His-ABCD1 (human ABCD1); experiment: thioesterase assay by TLC; in-gel fluorescence of acylated protein; settings: 1 mM MgCl2, 37 °C; ABCD1-liposomes; covalent acyl (thioester) intermediate
[4] = target: T3, His-ABCD1 (human ABCD1) (Homo sapiens, UniProt P33897, K513A); experiment: as above; settings: 1 mM MgCl2, 37 °C, 30 min; mutant liposomes; covalent acyl intermediate
T3 construct: full-length, His-tagged (tag kept), expressed in Komagataella phaffii pxa1-delta, beta-DDM-solubilised, metal-chelate purified, reconstituted into soybean PC liposomes; about 80 kDa band
T3 sequence (P33897 1-745 K513A): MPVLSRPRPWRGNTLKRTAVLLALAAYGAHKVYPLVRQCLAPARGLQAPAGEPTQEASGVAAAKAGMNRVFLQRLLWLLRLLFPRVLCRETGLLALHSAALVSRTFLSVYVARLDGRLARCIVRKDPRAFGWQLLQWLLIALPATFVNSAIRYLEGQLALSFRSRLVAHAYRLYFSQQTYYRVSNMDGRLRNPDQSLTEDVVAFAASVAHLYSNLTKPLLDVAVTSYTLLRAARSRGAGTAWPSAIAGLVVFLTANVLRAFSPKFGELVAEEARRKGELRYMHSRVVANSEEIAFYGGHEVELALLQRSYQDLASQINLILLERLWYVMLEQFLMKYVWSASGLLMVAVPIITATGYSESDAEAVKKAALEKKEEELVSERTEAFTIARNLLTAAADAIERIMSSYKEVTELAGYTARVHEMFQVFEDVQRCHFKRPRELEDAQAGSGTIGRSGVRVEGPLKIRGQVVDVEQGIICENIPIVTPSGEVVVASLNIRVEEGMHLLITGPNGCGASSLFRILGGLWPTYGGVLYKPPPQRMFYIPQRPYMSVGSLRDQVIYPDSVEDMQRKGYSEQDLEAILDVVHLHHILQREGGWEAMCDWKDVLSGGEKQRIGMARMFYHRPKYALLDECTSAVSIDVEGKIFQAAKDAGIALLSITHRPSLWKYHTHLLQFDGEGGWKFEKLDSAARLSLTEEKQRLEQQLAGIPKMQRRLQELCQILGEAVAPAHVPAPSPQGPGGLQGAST

[5] = target: T1, His-ABCD1 (human ABCD1); experiment: liposome transport assay of NBD-C16, dithionite quench, TLC; settings: read-out: residual NBD-C16 transport at 20 μM

Which “ATPase, phosphate release” value [1] does the source give for `Nc1ncnc2c1ncn2[C@@H]1O[C@H](COP(=O)(O)OP(=O)(O)OP(=O)(O)O)[C@@H](O)[C@H]1O` [ATP] here?
The value was “ABCD1-liposomes possess ATPase activity”.

With `O=C(O)CCCCCNc1ccc([N+](=O)[O-])c2nonc12` [NBD-C6] as the molecule, how does the “acyl-CoA synthesis, TLC” value [2] read?
The value was “NBD-C6) was incubated with purified His-KpFAA2 to generate NBD-hexanoyl-CoA”.

For `CC(C)(COP(=O)(O)OP(=O)(O)OC[C@H]1O[C@@H](n2cnc3c(N)ncnc32)[C@H](O)[C@@H]1OP(=O)(O)O)[C@@H](O)C(=O)NCCC(=O)NCCSC(=O)CCCCCCCCCCCCCCCNc1ccc([N+](=O)[O-])c2nonc12` [NBD-C16-CoA], which “thioesterase assay by TLC; in-gel fluorescence of acylated protein” value [3] is on record?
The value was “demonstrating that ABCD1 is covalently labeled by NBD-C16”.

What about the “thioesterase assay by TLC; in-gel fluorescence of acylated protein” value [4] of the same molecule?
Its value is “these mutants possess ACOT activity comparable to the wild type and exhibited covalent linkage”.

For `CCCCCCCCCCCCCCCC(=O)SCCNC(=O)CCNC(=O)[C@H](O)C(C)(C)COP(=O)(O)OP(=O)(O)OC[C@H]1O[C@@H](n2cnc3c(N)ncnc32)[C@H](O)[C@@H]1OP(=O)(O)O` [palmitoyl-CoA], which remaining activity at 20 µM [5] is on record?
The remaining activity at 20 µM was 3.95 ± 0.7%.
